“Also recorded” adds a separate entry of the source.
What was measured:
[1] = available chlorine over one hour in mixtures of a chelator and a sodium hypochlorite solution, titration with sodium thiosulfate (FIGS. 2 and 3); format: physicochemical; details: for loss of available hypochlorite anions: admixture into sodium hypochlorite solution
Excerpt: To measure the amount of hypochlorite, it has to be transferred by acidification to chlorine, which oxidizes potassium iodide to iodine. The latter is then titrated with a sodium thiosulfate solution.
In particular, the chlorine reduction from a 9 weight percentage and 18 weight percentage of Na4HEDP with reference to the total weight of the sodium hypochlorite solution as well as the chlorine reduction from a 3 weight percentage and 18 weight percentage of Na4EDTA with reference to the total weight of the sodium hypochlorite solution, respectively, was monitored over one hour, which is the normal duration of an endodontic treatment. The Na4HEDP and the Na4EDTA were each dissolved in a sodium hypochlorite solution comprising 1 weight percentage of sodium hypochlorite with reference to the total weight of the sodium hypochlorite solution.
The amount of chlorine over time was compared with a control solution of 1 weight percentage of pure sodium hypochlorite. In order to determine the amount of the available chlorine, aliquots of each solution (approximately 0.5 grams) were removed after 1 minute, 10 minutes, 20 minutes, 30 minutes and 60 minutes and assessed for their amount of available chlorine using a titration apparatus. Thereby, a 0.1 molar sodium thiosulfate solution was used as titrator.
In FIG. 3, the same measurements are performed using the same amounts of Na4HEDP and Na4EDTA as in FIG. 2, whereby these chelators are each admixed into a NaOCl solution comprising 5 weight percentage of NaOCl.

[2] = evolution of the pH-value of calcium hydroxide with Na4HEDP in distilled water (FIG. 4); format: physicochemical; details: 1 gram calcium hydroxide and 0.1 gram Na4HEDP in 10 milliliter distilled water, 10 minutes
Procedure: FIG. 4 depicts the evolution of the pH-value over time determined for the admixture of Na4HEDP and calcium hydroxide in solid form and only calcium hydroxide in solid form, respectively, into distilled water. The solutions are prepared by mixing 1 gram of calcium hydroxide in solid form and 0.1 gram of Na4HEDP in a glass vial. 10 milliliter of distilled water was added, and the pH measurement was started immediately and continued for 10 minutes. As a control, the pH value of 1 gram pure calcium hydroxide dissolved in 10 milliliter of distilled water was recorded, too. […] Consequently, the addition of Na4HEDP to calcium hydroxide can trigger an earlier onset of the desired disinfecting effect. In addition, the binding capacity of Na4HEDP to Ca^2+ makes it easier to remove the calcium hydroxide slurry from the root canal system before the canal is filled with an alloplastic material.

[3] = 18 weight percentage chelator in 1 weight percentage NaOCl solution, after one hour
[4] = 18 weight percentage chelator in 1 weight percentage NaOCl solution, at the start

SMILES	relative amount of chlorine compared to pure NaOCl control ([1]; 3 weight percentage chelator in 1 weight percentage NaOCl solution, after one hour)	relative amount of chlorine compared to pure NaOCl control ([1]; 3 weight percentage chelator in 1 weight percentage NaOCl solution, at the start)	relative amount of chlorine compared to pure NaOCl control [1, 3]	relative amount of chlorine compared to pure NaOCl control [1, 4]	loss of available hypochlorite anions ([1]; over the course of one hour)	amount of chlorine ([1]; chelator in 5 weight percentage NaOCl solution, after one hour)	relative amount of chlorine compared to pure NaOCl control ([1]; 9 weight percentage chelator in 1 weight percentage NaOCl solution, after one hour)	relative amount of chlorine compared to pure NaOCl control ([1]; 9 weight percentage chelator in 1 weight percentage NaOCl solution, at the start)	drop of the amount of chlorine ([1]; chelator in 5 weight percentage NaOCl solution, over the course of one hour)	pH value of the slurry compared to calcium hydroxide alone [2]
O=C([O-])CN(CCN(CC(=O)[O-])CC(=O)[O-])CC(=O)[O-].[Na+].[Na+].[Na+].[Na+] [Na4EDTA, reference compound]	below 25 weight percentage	about 95 weight percentage	below 25 weight percentage	about 75 weight percentage	pronounced loss	zero				
CC(O)(P(=O)([O-])[O-])P(=O)([O-])[O-].[Na+].[Na+].[Na+].[Na+] [Na4HEDP, tetrasodium (1-hydroxyethane)-1,1′-di-phosphonate]			about 75 weight percentage	~100 percentage	no significant loss; also recorded: does not cause any significant loss		about 90 weight percentage	~100 percentage	less than 25 percentage	higher pH value which increases faster

Source: patent US10434038B2, “Solid phosphonate salts as an add-on in endodontics” (smartodont GmbH, priority 2016, dated 2019)
